The results in this text go back to patent US20240300975A1, “DIMETHYL-SUBSTITUTED THIAZOLOLACTAM COMPOUND AND USE THEREOF” (D3 Bio (Wuxi) Co., Ltd., priority 2021, published 2024).

As usually defined, the IC50 is the point on the concentration scale where inhibition reaches its midpoint. A lower IC50 goes with inhibition by little substance.

One assay relates to HT29 tumor cells. The experiment in a line: In vitro cell proliferation inhibition (CellTiterGlo). It is filed as cell-based. The note with it: Homo sapiens, HT-29. On the procedure:
The ability of compounds to inhibit the proliferation of HT29 tumor cells was measured.
The assay compound was dissolved in 100% DMSO to prepare 10 mM stock solution.
• a) UV light of a biological safety cabin was turned on, and 30 minutes were counted down; • b) In a 37° C. water bath, RPMI1640 medium and trypsin were preheated; • c) After completion of the UV irradiation, the biological safety cabin was opened. The preheated medium, trypsin and phosphate buffered saline (PBS), etc. were wiped with alcohol and placed in the biological safety cabin; • d) HT29 cells were removed from the incubator, and the old medium was removed in biological safety cabin. 10 ml of PBS was added. […] The culture vessel was shaken horizontally so that the trypsin evenly covered the cells at the bottom, and placed in an incubator for 2 minutes; • f) Cell digestion was stopped with complete medium, and the cell suspension was pipetted to homogeneity and counted; • g) According to the result of cell counting, the density of cell suspension was adjusted to 1500 cells per well, and the cell suspension was seeded at 50 μl per well; • h) The stock solution of compounds was serially diluted in DMSO solution, and compounds were added to cell plate using Tecan; • i) The compound-added cell plate and CellTiterGlo were equilibrated at room temperature, and 25 microliters of CellTiterGlo was then added to each well. […]
(In general: ATP-based viability assays read luminescence as a measure of living cells.)

The next assay deals with ERK2 (Homo sapiens (Human), UniProt P28482). The experiment in a line: In vitro ERK2 kinase activity assay (33P-ATP, filter-binding). It is filed as biochemical. How it is done:
The ability of compounds to inhibit ERK1 and ERK2 kinase activity was measured.
20 mM Hepes (pH 7.5), 10 mM MgCl2, 1 mM ethylenebis(oxyethylenenitrilo)tetraacetic acid (EGTA), 0.02% Brij35, 0.02 mg/mL bovine serum albumin (BSA), 0.1 mM Na3VO4, 2 mM dithiothreitol (DTT), 1% DMSO.
The assay compound was dissolved in 100% DMSO to prepare a stock solution of specific concentration. The compound was serially diluted in DMSO solution using Integra Viaflo Assist smart pipette.
• a) The substrate MBP was prepared in freshly prepared reaction buffer; • b) ERK1 (or ERK2) kinase was added to the above-mentioned MBP solution and mixed gently; • c) The compound dissolved in 100% DMSO was added to the kinase reaction system using ultrasound technology (Echo550; nanoliter range), and the mixture was incubated at room temperature for 20 minutes; • d)^33P-ATP (specific concentration of […]) was added to the reaction system, and the reaction was started at this time; • e) The mixture was incubated at room temperature for 2 hours; • f) The amount of radioactivity was detected by filter-binding method; • g) ERK1 (or ERK2) kinase activity was calculated as the ratio of the remaining kinase activity in the assay sample to the kinase activity of the control group (treated by DMSO).
Curve was fitted using Prism (GraphPad software) and IC50 values were calculated.

Sequence of ERK2 (P28482 whole entry): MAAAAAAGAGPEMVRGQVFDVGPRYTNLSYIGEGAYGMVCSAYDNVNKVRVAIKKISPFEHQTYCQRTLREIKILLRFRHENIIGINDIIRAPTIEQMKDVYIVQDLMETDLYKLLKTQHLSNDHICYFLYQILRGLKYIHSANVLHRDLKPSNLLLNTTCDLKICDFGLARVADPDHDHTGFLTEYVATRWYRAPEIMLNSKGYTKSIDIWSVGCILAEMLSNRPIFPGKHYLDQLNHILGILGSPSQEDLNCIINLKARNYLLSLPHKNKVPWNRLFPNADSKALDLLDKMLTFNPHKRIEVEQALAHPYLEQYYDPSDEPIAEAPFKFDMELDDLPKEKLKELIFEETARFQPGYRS

Turning to `Cc1cccc(CN2C(=O)c3nc(-c4nc(NC5CCOCC5)ncc4C)sc3C2(C)C)n1` [WX002], the IC50 turned out to be 46 nM in the assay with HT29 tumor cells and 0.47 nM on ERK2.
In turn, `Cc1cccc(CN2C(=O)c3nc(-c4ccnc(Nc5ccnn5C)n4)sc3C2(C)C)n1` [WX003] returned an IC50 at ERK2 of 0.93 nM.
The same measure, in the same setting: for `CCc1cnc(Nc2ccnn2C)nc1-c1nc2c(s1)C(C)(C)N(Cc1cccc(C)n1)C2=O` [WX004] the value was 0.34 nM.
